From patent publication US11180497B2 (ANGEX PHARMACEUTICAL, INC., priority 2017, dated 2021)

Target: T1, Human IDO (Homo sapiens, UniProt P14902)
T1 construct: High control is Hela cells with IFNγ treatment; endogenous in cells; host or cells: HeLa cells treated with 25 ng/ml IFNγ
Test: HeLa cell IDO assay (IFNγ-treated cells, N-formylkynurenine by RapidFire/MS/MS)
Assay type: cell-based
Conditions: 25 ng/ml IFNγ, 200 μM Trp, 48 hours, class symbol

T1 sequence (P14902 whole entry): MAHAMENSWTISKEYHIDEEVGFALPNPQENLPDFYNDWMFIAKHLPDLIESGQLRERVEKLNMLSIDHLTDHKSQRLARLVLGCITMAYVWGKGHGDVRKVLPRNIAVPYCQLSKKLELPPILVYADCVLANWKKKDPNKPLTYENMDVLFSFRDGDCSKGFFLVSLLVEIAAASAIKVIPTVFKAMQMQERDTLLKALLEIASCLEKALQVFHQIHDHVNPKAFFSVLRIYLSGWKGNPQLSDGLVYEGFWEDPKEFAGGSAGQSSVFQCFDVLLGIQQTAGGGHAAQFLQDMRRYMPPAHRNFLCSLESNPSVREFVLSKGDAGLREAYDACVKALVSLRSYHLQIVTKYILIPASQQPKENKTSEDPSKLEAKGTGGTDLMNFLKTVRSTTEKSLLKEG

Row | SMILES | IC50 [nM]
1 | O=C(Nc1ccc(Cl)cc1)C1CC2(CCC(c3ccnc4ccc(F)cc34)CC2)C1 (single isomer, unassigned) [Compound 16-7, N-(4-chlorophenyl)-7-(6-fluoroquinolin-4-yl)spiro[3.5]nonane-2-carboxamide] | < 100
2 | O=C(Nc1ccc(-n2cccn2)cc1)[C@H]1C[C@]12CC[C@H](c1ccnc3ccc(F)cc31)CC2 [Compound 1-22] | 100 to 1000
3 | O=C(Nc1ccc(Cl)cc1)C1CC12CCN(c1ccnc3ccc(F)cc13)CC2 (single isomer, unassigned) [Compound 12-7, N-(4-chlorophenyl)-6-(6-fluoroquinolin-4-yl)-6-azaspiro[2.5]octane-1-carboxamide] | > 1000
4 | O=C(Nc1ccc(C(F)(F)F)cc1)[C@H]1C[C@]12CC[C@H](c1ccnc3ccc(F)cc31)CC2 [Compound 2-4] | 100 to 1000
5 | O=C(Nc1ccccc1F)[C@H]1C[C@]12CC[C@H](c1ccnc3ccc(F)cc31)CC2 [Compound 1-16] | 100 to 1000
6 | O=C(Nc1ccc(Cl)c(F)c1)[C@H]1C[C@]12CC[C@H](c1ccnc3ccc(F)cc31)CC2 [Compound 1-19] | < 100
7 | O=C(Nc1ccc(I)cc1F)[C@H]1C[C@]12CC[C@H](c1ccnc3ccc(F)cc31)CC2 (single isomer, unassigned) [Compound 4-9] | < 100
8 | COc1ccc2ncnc([C@H]3CC[C@@]4(CC3)C[C@@H]4C(=O)Nc3ccc(Cl)cc3)c2c1 [Compound 8-4E] | 100 to 1000
9 | O=C(NC1CC12CCC(c1ccnc3ccc(F)cc13)CC2)c1ccc(Cl)cc1 (single isomer, unassigned) [Compound 9-4, 4-chloro-N-(6-(6-fluoroquinolin-4-yl)spiro[2.5]octan-1-yl)benzamide] | < 100
10 | O=C(NC1CC12CCN(c1ccnc3ccc(F)cc13)CC2)c1ccc(Cl)cc1 (centres unmarked) [Compound 13-3, 4-chloro-N-(6-(6-fluoroquinolin-4-yl)-6-azaspiro[2.5]octan-1-yl)benzamide] | 100 to 1000
11 | O=C(Nc1ccc(Cl)cc1)C1([C@H]2CC[C@@H](c3ccnc4ccc(F)cc43)CC2)CC1 [Compound 24-5A, N-(4-chlorophenyl)-1-(4-(6-fluoroquinolin-4-yl)cyclohexyl)cyclopropyl-1-carboxamide] | < 100
12 | O=C(Nc1ccc(Cl)cc1)C1(F)CC12CCC(c1ccnc3ccc(F)cc13)CC2 (centres unmarked) [Compound 10-4, N-(4-chlorophenyl)-1-fluoro-6-(6-fluoroquinolin-4-yl)spiro[2.5]octane-1-carboxamide] | 100 to 1000
13 | O=C(Nc1ccc(Cl)cc1)C1CC12CCC(c1ccnc3ccc(F)cc13)CC2 (single isomer, unassigned) [Compound 1-10, N-(4-chlorophenyl)-6-(6-fluoroquinolin-4-yl)spiro[2.5]octane-1-carboxamide] | < 100
14 | O=C(Nc1ccc(Cl)cc1)C1CC12CCC(c1ccnc3ccc(F)cc13)CC2 (single isomer, unassigned) [Compound 1-11, N-(4-chlorophenyl)-6-(6-fluoroquinolin-4-yl)spiro[2.5]octane-1-carboxamide] | > 1000
15 | O=C(Nc1ccc(F)cc1)[C@H]1C[C@]12CC[C@H](c1ccnc3ccc(F)cc31)CC2 [Compound 1-12] | < 100
16 | O=C(Nc1ccc(Cl)cc1F)[C@H]1C[C@]12CC[C@H](c1ccnc3ccc(F)cc31)CC2 (single isomer, unassigned) [Compound 4-7] | < 100
17 | O=C(Nc1ccc(Cl)cc1)C1CC12CCN(c1ccnc3ccc(F)cc13)CC2 (single isomer, unassigned) [Compound 12-6, N-(4-chlorophenyl)-6-(6-fluoroquinolin-4-yl)-6-azaspiro[2.5]octane-1-carboxamide] | < 100

Row | SMILES | IC50 [nM]
18 | O=C([C@H]1C[C@]12CC[C@H](c1ccnc3ccc(F)cc31)CC2)N1CCC(C(F)(F)F)CC1 [Compound 1-20] | > 1000
19 | O=C(Nc1ccc(Cl)cc1)C1CC2(CCC(c3ccnc4ccc(F)cc34)CC2)C1 (single isomer, unassigned) [Compound 16-8, N-(4-chlorophenyl)-7-(6-fluoroquinolin-4-yl)spiro[3.5]nonane-2-carboxamide] | > 1000
20 | O=C(NC1CC12CCC(c1ccnc3ccc(F)cc13)CC2)c1ccc(Cl)cc1 (single isomer, unassigned) [Compound 9-5, 4-chloro-N-(6-(6-fluoroquinolin-4-yl)spiro[2.5]octan-1-yl)benzamide] | > 1000
21 | O=C(NC1(C2CCC(c3ccnc4ccc(F)cc34)CC2)CC1)c1ccc(Cl)cc1 (centres unmarked) [Compound 23-5A, 4-chloro-N-(1-(4-(6-fluoroquinolin-4-yl)cyclohexyl)cyclopropyl)-benzamide] | < 100
22 | Cc1ccc(NC(=O)[C@H]2C[C@]23CC[C@H](c2ccnc4ccc(F)cc42)CC3)cc1 [Compound 1-14] | < 100
23 | COc1cc2nccc([C@H]3CC[C@@]4(CC3)C[C@@H]4C(=O)Nc3ccc(Cl)cc3)c2cc1OC [Compound 8-4C] | < 100
24 | O=C(NCc1ccc(Cl)cc1)[C@H]1C[C@]12CC[C@H](c1ccnc3ccc(F)cc31)CC2 [Compound 1-21] | > 1000
25 | O=C(Nc1ccc(Br)cc1)[C@H]1C[C@]12CC[C@H](c1ccnc3ccc(F)cc31)CC2 (single isomer, unassigned) [Compound 4-4] | < 100
26 | O=C(Nc1ccc(Cl)cc1)C1([C@H]2CC[C@H](c3ccnc4ccc(F)cc43)CC2)CC1 [Compound 24-5B, N-(4-chlorophenyl)-1-(4-(6-fluoroquinolin-4-yl)cyclohexyl)cyclopropyl-1-carboxamide] | < 100
27 | O=C(Nc1cccc(C(F)(F)F)c1)[C@H]1C[C@]12CC[C@H](c1ccnc3ccc(F)cc31)CC2 [Compound 1-17] | > 1000
28 | O=C(Nc1ccc(Cl)cc1)C1CC12CCC(c1ccnc3ccc(F)cc13)CC2 (centres unmarked) [Compound 5-4, N-(4-chlorophenyl)-6-(6-fluoroquinolin-4-yl)spiro[2.5]octane-1-carboxamide] | 100 to 1000
29 | O=C(Nc1ccc(Cl)cc1)C1CC12CCC(c1ccnc3ccncc13)CC2 (racemic) [Compound 6-9, N-(4-chlorophenyl)-6-(1,6-naphthyridin-4-yl)spiro[2.5]octane-1-carboxamide] | < 100
30 | O=C(NN1CCCCC1)[C@H]1C[C@]12CC[C@H](c1ccnc3ccc(F)cc31)CC2 [Compound 1-18] | > 1000
31 | N#Cc1ccc(NC(=O)C2CC23CCC(c2ccnc4ccc(F)cc24)CC3)cc1 (centres unmarked) [Compound 2-1, N-(4-cyanophenyl)-6-(6-fluoroquinolin-4-yl)spiro[2.5]octane-1-carboxamide] | < 100
32 | N#Cc1ccc2nccc([C@H]3CC[C@@]4(CC3)C[C@@H]4C(=O)Nc3ccc(Cl)cc3)c2c1 [Compound 8-4B] | < 100
33 | O=C(NC1CCC12CCC(c1ccnc3ccc(F)cc13)CC2)c1ccc(Cl)cc1 (centres unmarked) [Compound 14-7, 4-chloro-N-(7-(6-fluoroquinolin-4-yl)spiro[3.5]nonan-1-yl)benzamide] | > 1000
34 | O=C(Nc1cccc(Cl)c1)[C@H]1C[C@]12CC[C@H](c1ccnc3ccc(F)cc31)CC2 [Compound 1-15] | 100 to 1000

Other lines, results leading:

Row | IC50 [nM] | SMILES
35 | < 100 | O=C(Nc1ccc(Cl)cc1)C1(C2CCC(c3ccnc4ccncc34)CC2)CC1 (mixture of isomers) [Compound 29-6, 1-(4-(1,6-naphthyridin-4-yl)cyclohexyl)-N-(4-chlorophenyl) cyclopropane-1-carboxamide]
36 | 100 to 1000 | O=C(NC1(C2CCN(c3ccnc4ccc(F)cc34)CC2)CC1)c1ccc(Cl)cc1 [Compound 27-3, 4-chloro-N-[1-[1-(6-fluoroquinolin-4-yl)piperidin-4-yl]cyclopropyl]benzamide]
37 | > 1000 | O=C(NC1CC2(CCN(c3ccnc4ccncc34)CC2)C1)c1ccc(Cl)cc1 [Compound 22-5, N-(7-(1,6-naphthyridin-4-yl)-7-azaspiro[3.5]nonan-2-yl)-4-chlorobenzamide]
38 | 100 to 1000 | O=C(NC1CC2(CCC(c3ccnc4ccc(F)cc34)CC2)C1)c1ccc(Cl)cc1 (single isomer, unassigned) [Compound 17-7, 4-chloro-N-(7-(6-fluoroquinolin-4-yl)spiro[3.5]nonan-2-yl)benzamide]
39 | 100 to 1000 | O=C(N[C@H]1CC2(CC[C@H](c3ccnc4ccc(F)cc43)CC2)C1)c1ccncc1 (some centres unmarked) [Compound 17-9]
40 | < 100 | O=C(Nc1ccc(Cl)cc1)C1(C2CCN(c3ccnc4ccc(F)cc34)CC2)CC1 [Compound 26-8, N-(4-chlorophenyl)-1-[1-(6-fluoroquinolin-4-yl)piperidin-4-yl]cyclopropane-1-carboxamide]
41 | > 1000 | O=C(N[C@H]1CC2(CC[C@H](c3ccnc4ccncc43)CC2)C1)c1ccc(Cl)cc1 (single isomer, unassigned) [Compound 21-5]
42 | < 100 | N#Cc1ccc(C(=O)N[C@H]2CC3(CC[C@H](c4ccnc5ccc(F)cc54)CC3)C2)cc1 (some centres unmarked) [Compound 17-8]
43 | < 100 | O=C(Nc1ccc(Cl)cc1)C1(C2CCC(c3ccnc4ccncc34)CC2)CC1 (centres unmarked) [Compound 28-5, 1-(4-(1,6-naphthyridin-4-yl)cyclohexyl)-N-(4-chlorophenyl)cyclopropane-1-carboxamide]
44 | < 100 | O=C(NC1CC2(CCC(c3ccnc4ccc(F)cc34)CC2)C1)c1ccc(Cl)cc1 (single isomer, unassigned) [Compound 17-6, 4-chloro-N-(7-(6-fluoroquinolin-4-yl)spiro[3.5]nonan-2-yl)benzamide]
45 | < 100 | O=C(N[C@H]1CC2(CC[C@H](c3ccnc4ccncc43)CC2)C1)c1ccc(Cl)cc1 (single isomer, unassigned) [Compound 21-4]
46 | < 100 | O=C(NC1CC2(CCN(c3ccnc4ccc(F)cc34)CC2)C1)c1ccc(Cl)cc1 [Compound 18-5, 4-chloro-N-(7-(6-fluoroquinolin-4-yl)-7-azaspiro[3.5]nonan-2-yl)benzamide]
47 | 100 to 1000 | O=C(Nc1ccc(Cl)cc1)C1CC2(CCN(c3ccnc4ccc(F)cc34)CC2)C1 [Compound 19-3, N-(4-chlorophenyl)-7-(6-fluoroquinolin-4-yl)-7-azaspiro[3.5]nonane-2-carboxamide]
